Assays:
pig waste [1] = assay: BOD and TSS of pig waste samples treated with fatty acids and combinations (test duration not given); design: BOD reduction / TSS reduction: concentration or dose not given beside the values; details: treated pig waste sample
Description: A test was performed to determine the relative performance of various additives on the bioremediation or degradation of wastes suspended in water. Measurements of the “biological oxygen demand” (BOD) and “total suspended solids” (TSS) were taken as representative of the progress of the microbial growth and effectiveness of the degradation brought about by the microbes.
Approximately five pounds of pig waste was collected from a feedlot and diluted in five gallons of deionized water. The mixture was allowed to sit for 24 hours to insure that the waste formed a uniform mixture. Five hundred milliliters (500 ml) of the aqueous waste mixture was added to each of 13 two-liter glass bottles that were closed with Teflon lined caps. Ammonium hydroxide was added to each container for a final concentration of 2000 ppm.
The samples were diluted with water 2:1 and filtered to remove large particulate matter. Various fatty acids and combinations of fatty acids were added to each bottle and the bottles were placed in a tumbler at 25 degrees Celsius. Seven of the bottles were used in a seven-day test and six of the bottles were used in a twelve-day test. Standard EPA test methods were used for all test measurements.
BOD (biological oxygen demand) and TSS (total suspended solids) were measured on each sample.

pig waste [2] = assay: Seven-day test: bioremediation/degradation of pig waste suspended in water with fatty acid additives; details: 0.1 g fatty acid (0.5 g coated nutrient) per bottle of aqueous pig waste mixture, 2000 ppm ammonium hydroxide, 25 degrees Celsius
Description: A test was performed to determine the relative performance of various additives on the bioremediation or degradation of wastes suspended in water. Measurements of the “biological oxygen demand” (BOD) and “total suspended solids” (TSS) were taken as representative of the progress of the microbial growth and effectiveness of the degradation brought about by the microbes. Approximately five pounds of pig waste was collected from a feedlot and diluted in five gallons of deionized water. The mixture was allowed to sit for 24 hours to insure that the waste formed a uniform mixture. Five hundred milliliters (500 ml) of the aqueous waste mixture was added to each of 13 two-liter glass bottles that were closed with Teflon lined caps. Ammonium hydroxide was added to each container for a final concentration of 2000 ppm. The samples were diluted with water 2:1 and filtered to remove large particulate matter. Various fatty acids and combinations of fatty acids were added to each bottle and the bottles were placed in a tumbler at 25 degrees Celsius. Seven of the bottles were used in a seven-day test and six of the bottles were used in a twelve-day test. Standard EPA test methods were used for all test measurements.

CCCCCCCC/C=C\CCCCCCCC(=O)O [Oleic, oleic acid] showed a BOD levels (pig waste [1]) of 6050 ppm, a BOD reduction (pig waste [1]) of 13.0% and a TSS levels (pig waste [1]) of 407 ppm. For the same compound, the TSS reduction (pig waste [1]) was 19.6% and the “TSS (total suspended solids)” value (pig waste [2]) was 15,600 ppm.

CCCCC/C=C\C/C=C\CCCCCCCC(=O)O [Linoleic, linoleic acid] showed a BOD levels (pig waste [1]) of 6102 ppm, a BOD reduction (pig waste [1]) of 12.2% and a TSS levels (pig waste [1]) of 439 ppm. For the same compound, the TSS reduction (pig waste [1]) was 13.3% and the “TSS (total suspended solids)” value (pig waste [2]) was 15,780 ppm.

For CCCCCCCCCCCC(=O)O [Lauric], the “TSS (total suspended solids)” value (pig waste [2]) was 16,040 ppm.

With CCCCCCCCCCCCCCCCCC(=O)O [Strearic, stearic acid] the BOD levels (pig waste [1]) was 6660 ppm, the BOD reduction (pig waste [1]) was 9.5% and the TSS levels (pig waste [1]) was 455 ppm. For the same compound, the TSS reduction (pig waste [1]) was 10.0% and the “TSS (total suspended solids)” value (pig waste [2]) was 16,080 ppm.

Reference: patent US20050180944A1, “In situ remediation of waste in farm animal bedding substrates” (priority 2004, published 2005)
